In ChEMBL document CHEMBL3085748, “Acetylcholinesterase inhibitors as Alzheimer therapy: from nerve toxins to neuroprotection” (Eur J Med Chem, 2013):

What was measured:
Acetylcholinesterase [1] = biological target: T1, Acetylcholinesterase (Homo sapiens, UniProt P22303); assay: Inhibition of acetylcholinesterase (unknown origin)
Cholinesterase = Cholinesterase (Equus caballus, UniProt P81908); assay: Inhibition of equine serum BuChE after 15 mins by spectrophotometric analysis
Acetylcholinesterase [2] = biological target: T2, Acetylcholinesterase (Electrophorus electricus, UniProt O42275); assay: Inhibition of electric eel acetylcholinesterase using acetylthiocholine chloride as substrate preincubated for 15 mins followed by substrate addition measured every 1 min by spectrophotometric analysis
T2 sequence (O42275 whole entry): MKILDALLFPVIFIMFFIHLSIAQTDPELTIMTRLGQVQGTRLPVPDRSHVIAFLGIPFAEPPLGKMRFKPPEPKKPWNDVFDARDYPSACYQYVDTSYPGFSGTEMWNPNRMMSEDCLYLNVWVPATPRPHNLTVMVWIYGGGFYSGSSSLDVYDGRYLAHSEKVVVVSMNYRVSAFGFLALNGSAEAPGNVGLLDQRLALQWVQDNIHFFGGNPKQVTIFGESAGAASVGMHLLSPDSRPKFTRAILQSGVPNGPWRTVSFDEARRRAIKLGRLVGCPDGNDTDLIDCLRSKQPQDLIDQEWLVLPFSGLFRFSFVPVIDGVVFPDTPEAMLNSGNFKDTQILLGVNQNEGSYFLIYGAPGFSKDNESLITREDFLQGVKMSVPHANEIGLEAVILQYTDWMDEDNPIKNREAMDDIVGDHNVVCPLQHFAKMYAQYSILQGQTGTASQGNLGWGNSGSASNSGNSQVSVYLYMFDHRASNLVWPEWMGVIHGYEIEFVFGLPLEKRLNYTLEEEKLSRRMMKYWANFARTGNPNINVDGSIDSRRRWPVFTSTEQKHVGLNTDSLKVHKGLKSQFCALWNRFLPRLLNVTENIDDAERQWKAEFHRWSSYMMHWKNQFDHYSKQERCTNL

Acetylcholinesterase [3] = biological target: T2, Acetylcholinesterase; assay: Inhibition of electric eel acetylcholinesterase using acetylcholine chloride as substrate measured every 1 min by chemiluminescent assay
Acetylcholinesterase [4] = biological target: T3, Acetylcholinesterase (Rattus norvegicus, UniProt P37136); assay: Inhibition of rat brain AChE
T3 sequence (P37136 whole entry): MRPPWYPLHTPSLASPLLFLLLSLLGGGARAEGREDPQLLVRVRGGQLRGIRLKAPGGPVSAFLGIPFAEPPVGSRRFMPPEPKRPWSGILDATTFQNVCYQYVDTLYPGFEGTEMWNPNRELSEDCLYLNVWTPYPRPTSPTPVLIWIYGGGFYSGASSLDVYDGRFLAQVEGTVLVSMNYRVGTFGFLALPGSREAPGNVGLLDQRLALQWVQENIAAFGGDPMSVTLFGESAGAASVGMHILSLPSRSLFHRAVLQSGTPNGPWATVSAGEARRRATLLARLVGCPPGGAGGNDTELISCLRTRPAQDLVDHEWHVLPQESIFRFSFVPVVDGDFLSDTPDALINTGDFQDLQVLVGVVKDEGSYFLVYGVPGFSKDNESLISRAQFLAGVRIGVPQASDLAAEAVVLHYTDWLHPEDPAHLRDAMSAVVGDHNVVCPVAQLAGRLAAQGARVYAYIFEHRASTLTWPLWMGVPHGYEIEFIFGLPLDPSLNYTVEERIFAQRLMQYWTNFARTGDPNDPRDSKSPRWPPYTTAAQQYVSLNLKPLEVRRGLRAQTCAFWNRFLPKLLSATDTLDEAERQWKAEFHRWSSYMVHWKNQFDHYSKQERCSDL

Acetylcholinesterase [5] = biological target: T1, Acetylcholinesterase; assay: Inhibition of acetylcholinesterase (unknown origin) by Ellman's method
Acetylcholinesterase [6] = biological target: T4, Acetylcholinesterase (Bos taurus, UniProt P23795); assay: Inhibition of bovine erythrocyte acetylcholinesterase using acetylthiocholine iodide as substrate after 15 mins by Ellman's method
T4 sequence (P23795 whole entry): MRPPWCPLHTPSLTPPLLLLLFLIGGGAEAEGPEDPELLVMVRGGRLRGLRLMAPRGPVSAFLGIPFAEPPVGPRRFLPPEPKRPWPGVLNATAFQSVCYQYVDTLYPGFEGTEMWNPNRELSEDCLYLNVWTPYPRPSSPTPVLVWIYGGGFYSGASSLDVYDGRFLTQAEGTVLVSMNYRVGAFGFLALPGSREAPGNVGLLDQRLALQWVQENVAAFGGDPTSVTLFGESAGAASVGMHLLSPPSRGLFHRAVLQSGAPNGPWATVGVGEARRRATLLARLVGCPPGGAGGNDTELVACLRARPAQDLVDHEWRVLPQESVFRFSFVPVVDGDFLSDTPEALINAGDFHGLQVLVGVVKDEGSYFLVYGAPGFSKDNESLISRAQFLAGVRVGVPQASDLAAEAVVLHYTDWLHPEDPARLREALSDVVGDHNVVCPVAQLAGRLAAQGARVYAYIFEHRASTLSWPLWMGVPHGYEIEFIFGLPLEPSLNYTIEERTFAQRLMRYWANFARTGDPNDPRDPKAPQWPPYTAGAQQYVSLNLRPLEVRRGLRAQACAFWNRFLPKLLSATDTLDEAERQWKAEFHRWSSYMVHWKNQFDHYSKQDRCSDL

T1 sequence (P22303 whole entry): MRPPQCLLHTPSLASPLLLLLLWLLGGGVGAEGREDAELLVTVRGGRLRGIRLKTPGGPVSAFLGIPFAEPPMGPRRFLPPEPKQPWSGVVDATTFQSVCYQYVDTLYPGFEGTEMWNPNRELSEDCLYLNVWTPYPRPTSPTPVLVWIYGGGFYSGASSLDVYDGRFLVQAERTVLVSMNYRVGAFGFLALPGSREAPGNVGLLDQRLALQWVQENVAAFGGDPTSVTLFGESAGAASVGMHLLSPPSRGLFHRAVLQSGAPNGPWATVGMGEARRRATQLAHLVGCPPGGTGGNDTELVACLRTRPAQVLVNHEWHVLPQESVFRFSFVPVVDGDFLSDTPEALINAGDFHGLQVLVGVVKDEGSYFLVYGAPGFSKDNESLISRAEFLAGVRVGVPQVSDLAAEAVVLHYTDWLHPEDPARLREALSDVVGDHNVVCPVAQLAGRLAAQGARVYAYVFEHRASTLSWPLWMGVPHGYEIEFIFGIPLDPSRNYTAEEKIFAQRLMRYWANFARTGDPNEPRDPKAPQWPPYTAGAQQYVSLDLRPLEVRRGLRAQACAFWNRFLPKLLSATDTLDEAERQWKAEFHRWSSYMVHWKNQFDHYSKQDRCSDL
Chain of Cholinesterase (P81908 whole entry): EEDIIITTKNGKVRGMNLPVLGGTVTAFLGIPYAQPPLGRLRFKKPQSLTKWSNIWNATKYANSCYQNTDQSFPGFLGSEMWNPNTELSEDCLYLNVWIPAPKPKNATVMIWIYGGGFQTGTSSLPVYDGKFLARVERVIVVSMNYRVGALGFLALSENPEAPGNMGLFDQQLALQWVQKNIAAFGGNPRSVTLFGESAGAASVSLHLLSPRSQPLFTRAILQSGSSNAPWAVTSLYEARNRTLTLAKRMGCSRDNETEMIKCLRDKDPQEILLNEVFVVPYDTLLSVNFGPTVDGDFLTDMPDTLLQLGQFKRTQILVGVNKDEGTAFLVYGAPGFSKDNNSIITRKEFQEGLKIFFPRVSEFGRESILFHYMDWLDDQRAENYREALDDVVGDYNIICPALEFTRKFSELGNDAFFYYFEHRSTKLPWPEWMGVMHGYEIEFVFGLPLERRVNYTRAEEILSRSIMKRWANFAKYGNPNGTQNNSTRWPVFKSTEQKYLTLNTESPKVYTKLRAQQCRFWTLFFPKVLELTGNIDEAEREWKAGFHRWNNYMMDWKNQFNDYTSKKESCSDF

**Q.** CCOC(=O)C1=C(C)Oc2nc3c(c(N)c2C1c1ccc(C)cc1)CCCC3 (centres undefined) was tested. Which IC50 (Acetylcholinesterase [1]) did it give?
**A.** 182 nM

**Q.** For COc1cc2c3c(c1OC)/C1=C/C[C@H](O)C[C@@H](O)[C@H](O1)[C@@H]3N(C)CC2, which IC50 (Cholinesterase) is on record?
**A.** 13.4 µM

**Q.** What about the IC50 (Acetylcholinesterase [2]) of the same compound?
**A.** 720 nM

**Q.** O=C1CCN(Cc2ccccc2)C/C1=C\c1c[nH]c2ccccc12 was tested. Which IC50 (Acetylcholinesterase [3]) did it give?
**A.** 8 µM

**Q.** CC(=O)CCCCCCCCCCCC[C@H]1CC[C@@H](OC(C)=O)[C@@H](C)N1 was tested. Which IC50 (Acetylcholinesterase [4]) did it give?
**A.** 7.32 µM

**Q.** CCn1c(=O)n(C)s/c1=N\CCC1CCN(Cc2ccccc2)CC1 was tested. Which IC50 (Acetylcholinesterase [5]) did it give?
**A.** 140 nM

**Q.** How did the IC50 (Acetylcholinesterase [1]) turn out when CCOC(=O)C1=C(C)Oc2nc3c(c(N)c2C1c1ccc(OC)cc1)CCCC3 (centres undefined) was run?
**A.** 868 nM

**Q.** With CC(=O)CCCCCCCCCCCC[C@H]1CC[C@@H](OC(=O)OC(C)(C)C)[C@@H](C)N1 as the compound, how does the IC50 (Acetylcholinesterase [4]) read?
**A.** 15.1 µM

**Q.** For Cc1nn(-c2ccccc2)c2nc3nc4c(c(N)c3cc12)CCCC4, which IC50 (Acetylcholinesterase [6]) is on record?
**A.** 6.4 µM
